We go through 7 compounds from ChEMBL document CHEMBL3045653, “A novel amino acid substitution Ala-122-Tyr in ALS confers high-level and broad resistance across ALS-inhibiting herbicides” (Pest Manag Sci, 2012).

Active and inactive are the calls of the source. The calls are words filed in the database; no cut-off is given here.

For assay [1], the target named is T1, Acetolactate synthase (Raphanus raphanistrum, UniProt J7HAW4).
T1 sequence (J7HAW4 whole entry): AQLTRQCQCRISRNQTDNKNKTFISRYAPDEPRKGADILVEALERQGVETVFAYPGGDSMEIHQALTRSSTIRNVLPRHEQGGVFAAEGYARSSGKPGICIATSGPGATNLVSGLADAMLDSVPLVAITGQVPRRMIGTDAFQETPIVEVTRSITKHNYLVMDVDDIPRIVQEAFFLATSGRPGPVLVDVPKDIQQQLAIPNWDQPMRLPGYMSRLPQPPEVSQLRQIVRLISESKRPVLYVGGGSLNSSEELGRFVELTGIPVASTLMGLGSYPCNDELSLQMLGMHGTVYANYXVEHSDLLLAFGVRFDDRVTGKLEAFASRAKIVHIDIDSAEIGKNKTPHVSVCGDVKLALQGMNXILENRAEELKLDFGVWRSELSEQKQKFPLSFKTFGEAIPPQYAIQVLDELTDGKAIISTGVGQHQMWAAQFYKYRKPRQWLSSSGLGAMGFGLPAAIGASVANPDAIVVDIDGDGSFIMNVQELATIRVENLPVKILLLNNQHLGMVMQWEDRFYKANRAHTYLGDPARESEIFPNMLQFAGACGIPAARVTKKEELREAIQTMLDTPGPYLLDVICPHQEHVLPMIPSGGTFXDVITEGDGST
As to the kind of experiment: Inhibition of ALS in ALS-herbicide-susceptible Raphanus raphanistrum […] (wild radish). The settings on record: pooled result: one value given for 2 cell lines, strains, targets or settings; read-out: I50.

Assay [2] concerns Raphanus raphanistrum. As to the kind of experiment: Resistance index, ratio of I50 for ALS Ala122Tyr mutant in ALS-herbicide-resistant Raphanus raphanistrum WARR30 (wild radish) expressing ALS Ala122Tyr mutant to I50 for ALS-herbicide-susceptible Raphanus raphanistrum (wild radish).
Assay [3] addresses Acetolactate synthase (Raphanus raphanistrum, UniProt J7HAW4, A122Y). As to the kind of experiment: Inhibition of ALS Ala122Tyr mutant in ALS-herbicide-resistant Raphanus raphanistrum WARR30 (wild radish) expressing ALS Ala122Tyr mutant. The settings on record: read-out: I50.
In assay [4] the test system is Raphanus raphanistrum. As to the kind of experiment: Resistance index, ratio of GR50 for ALS-herbicide-resistant Raphanus raphanistrum WARR30 (wild radish) expressing ALS Ala122Tyr mutant to GR50 for ALS-herbicide-susceptible Raphanus raphanistrum (wild radish) WARR7. Type of assay: functional.
The test system of assay [5] is Raphanus raphanistrum. As to the kind of experiment: Herbicidal activity against two to three leaf stage ALS-herbicide-susceptible Raphanus raphanistrum WARR7 (wild radish) assessed as reduction in dry weight of above-ground biomass measured 3 weeks after compound treatment. The format is functional.
Assay [6] relates to Raphanus raphanistrum. The experiment in a line: Herbicidal activity against two to three leaf stage ALS-herbicide-resistant Raphanus raphanistrum WARR30 (wild radish) expressing ALS Ala122Tyr mutant assessed as reduction in dry weight of above-ground biomass measured 3 weeks after compound treatment. Type of assay: functional.
In assay [7] the test system is Raphanus raphanistrum. As to the kind of experiment: Resistance index, ratio of LD50 for ALS-herbicide-resistant Raphanus raphanistrum WARR30 (wild radish) expressing ALS Ala122Tyr mutant to LD50 for ALS-herbicide-susceptible Raphanus raphanistrum (wild radish) WARR7. Type of assay: functional.
Assay [8] concerns Raphanus raphanistrum. The experiment in a line: Herbicidal activity against two to three leaf stage ALS-herbicide-susceptible Raphanus raphanistrum WARR7 (wild radish) assessed as reduction in survival measured 3 weeks after compound treatment. Type of assay: functional.
The test system of assay [9] is Raphanus raphanistrum. The experiment in a line: Herbicidal activity against two to three leaf stage ALS-herbicide-resistant Raphanus raphanistrum WARR30 (wild radish) expressing ALS Ala122Tyr mutant assessed as reduction in survival measured 3 weeks after compound treatment. The format is functional.
The subject of assay [10] is Raphanus raphanistrum. As to the kind of experiment: Herbicidal activity against two to three-leaf stage ALS-herbicide-susceptible Raphanus raphanistrum WARR7 (wild radish) assessed as reduction in survival at 0.75 g/ha measured 3 weeks after compound treatment. Type of assay: functional. The settings on record: WARR7, 504 h, read-out: GI.
Assay [11] deals with Raphanus raphanistrum. The experiment in a line: Herbicidal activity against two to three-leaf stage ALS-herbicide-resistant Raphanus raphanistrum WARR30 (wild radish) expressing ALS Ala122Tyr mutant assessed as reduction in survival at 384 g/ha measured 3 weeks after compound treatment. Type of assay: functional. The settings on record: WARR30, 504 h, read-out: GI.
The subject of assay [12] is Raphanus raphanistrum. The experiment in a line: Herbicidal activity against two to three-leaf stage ALS-herbicide-susceptible Raphanus raphanistrum WARR7 (wild radish) assessed as reduction in survival at 50 g/ha measured 3 weeks after compound treatment. The format is functional, organism-based.
In assay [13] the test system is Raphanus raphanistrum. As to the kind of experiment: Herbicidal activity against two to three-leaf stage ALS-herbicide-resistant Raphanus raphanistrum WARR30 (wild radish) expressing ALS Ala122Tyr mutant assessed as reduction in survival at 1600 g/ha measured 3 weeks after compound treatment. Type of assay: functional. The settings on record: WARR30, 504 h, read-out: GI.

For assay [14], the system named is Raphanus raphanistrum. The experiment in a line: Herbicidal activity against two to three-leaf stage ALS-herbicide-susceptible Raphanus raphanistrum WARR7 (wild radish) assessed as reduction in survival at 62 g/ha measured 3 weeks after compound treatment. The format is functional, organism-based.
Assay [15] deals with Raphanus raphanistrum. The experiment in a line: Herbicidal activity against two to three-leaf stage ALS-herbicide-resistant Raphanus raphanistrum WARR30 (wild radish) expressing ALS Ala122Tyr mutant assessed as reduction in survival at 640 g/ha measured 3 weeks after compound treatment. The format is functional, organism-based.
Assay [16] relates to Raphanus raphanistrum. The experiment in a line: Herbicidal activity against two to three-leaf stage ALS-herbicide-resistant Raphanus raphanistrum WARR30 (wild radish) expressing ALS Ala122Tyr mutant assessed as reduction in survival at 20 g/ha measured 3 weeks after compound treatment. The settings on record: WARR30, 504 h, read-out: GI. Type of assay: functional.
Assay [17] has as its system Raphanus raphanistrum. As to the kind of experiment: Herbicidal activity against two to three-leaf stage ALS-herbicide-susceptible Raphanus raphanistrum WARR7 (wild radish) assessed as reduction in survival at 0.625 g/ha measured 3 weeks after compound treatment. The format is functional. The settings on record: WARR7, 504 h, read-out: GI.

For `COc1cc(OC)n2nc(S(=O)(=O)Nc3c(Cl)ccc(C)c3Cl)nc2n1` [METOSULAM], the IC50 at Acetolactate synthase [1] was less than 0.001 µM; at Acetolactate synthase [3], 94 µM. For the same compound, the Ratio in the assay on Raphanus raphanistrum [2] was greater than 94500; with Raphanus raphanistrum [4], greater than 512; with Raphanus raphanistrum [7], greater than 512. Besides, the figures for the GR50 in the assay with Raphanus raphanistrum [5] and in the assay on Raphanus raphanistrum [6] were less than 0.75 g/ha and greater than 384 g/ha, respectively. For the same compound, the LD50 with Raphanus raphanistrum [8] is less than 0.75 g/ha; with Raphanus raphanistrum [9], greater than 384 g/ha. For the same compound, the inhibition of growth at 0.75 g/ha in the assay on Raphanus raphanistrum [10] was 95%. In addition, the inhibition of growth at 384 g/ha in the assay on Raphanus raphanistrum [11] is 10%.
Consider `CC(C)C1(C)N=C(c2ncccc2C(=O)O)NC1=O` (centres undefined) [IMAZAPYR], for which the IC50 on Acetolactate synthase [1] is 6.84 µM; at Acetolactate synthase [3], greater than 100 µM. Also, the Ratio with Raphanus raphanistrum [2] was greater than 14.6; in the assay with Raphanus raphanistrum [4] it was greater than 7.8; in the assay with Raphanus raphanistrum [7], greater than 16. Further, the figures for the GR50 in the assay on Raphanus raphanistrum [5] and in the assay with Raphanus raphanistrum [6] were less than 63 g/ha and 486 g/ha, respectively. Moreover, the LD50 in the assay on Raphanus raphanistrum [8] was less than 63 g/ha; with Raphanus raphanistrum [9], 1000 g/ha. The outcome in the assay on Raphanus raphanistrum [12] was Active.
Take `COCc1cnc(C2=NC(C)(C(C)C)C(=O)N2)c(C(=O)O)c1` (centres undefined) [IMAZAMOX]: the results for the IC50 on Acetolactate synthase [1] and on Acetolactate synthase [3] were 4.78 µM and greater than 100 µM, respectively. Also, the Ratio is greater than 21 with Raphanus raphanistrum [2], greater than 256 in the assay on Raphanus raphanistrum [4] and greater than 137 with Raphanus raphanistrum [7]. Further, the GR50 is less than 6.3 g/ha in the assay on Raphanus raphanistrum [5] and greater than 1600 g/ha in the assay on Raphanus raphanistrum [6]. Moreover, the LD50 in the assay with Raphanus raphanistrum [8] is given as 11.7 g/ha; with Raphanus raphanistrum [9], greater than 1600 g/ha. Besides, the inhibition of growth at 1600 g/ha with Raphanus raphanistrum [13] turned out to be 20%. Further, the result with Raphanus raphanistrum [14] was Active.
As to `Cc1cc(C)nc(NC(=O)NS(=O)(=O)c2ccccc2C(=O)O)n1` [SULFOMETURON], the Ratio in the assay on Raphanus raphanistrum [2] was greater than 4350. Further, the IC50 on Acetolactate synthase [3] was greater than 100 µM. The result in the assay with Raphanus raphanistrum [5] and in the assay on Raphanus raphanistrum [8] was Active. The result in the assay on Raphanus raphanistrum [6] and in the assay on Raphanus raphanistrum [9] was inactive.
For the compound `CCc1cnc(C2=NC(C)(C(C)C)C(=O)N2)c(C(=O)O)c1` (centres undefined) [IMAZETHAPYR], the IC50 was 1.35 µM on Acetolactate synthase [1] and greater than 1000 µM at Acetolactate synthase [3]. In the assay with Raphanus raphanistrum [2], the Ratio is greater than 741. For the same compound, the result in the assay with Raphanus raphanistrum [5] and with Raphanus raphanistrum [8] was Active. The result in the assay with Raphanus raphanistrum [6] and in the assay with Raphanus raphanistrum [9] was inactive.
As to `COc1nc(C)nc(NC(=O)NS(=O)(=O)c2ccccc2Cl)n1` [CHLORSULFURON], the outcome with Raphanus raphanistrum [15] was inactive. Moreover, the inhibition of growth at 20 g/ha in the assay with Raphanus raphanistrum [16] was determined as 15%. For the same compound, the GR50 with Raphanus raphanistrum [5] is given as less than 0.625 g/ha; in the assay on Raphanus raphanistrum [6], greater than 640 g/ha. Further, the figures for the LD50 in the assay on Raphanus raphanistrum [8] and with Raphanus raphanistrum [9] were less than 0.625 g/ha and greater than 640 g/ha, respectively. Further, in the assay on Raphanus raphanistrum [17], the inhibition of growth at 0.625 g/ha is 72%.
`Cc1ccn2nc(S(=O)(=O)Nc3c(F)cccc3F)nc2n1`: the IC50 is 1.66 µM on Acetolactate synthase [1] and greater than 100 µM at Acetolactate synthase [3]. The Ratio with Raphanus raphanistrum [2] is greater than 60. Besides, the outcome in the assay with Raphanus raphanistrum [5] and in the assay with Raphanus raphanistrum [8] was Active. Also, the outcome in the assay with Raphanus raphanistrum [6] and in the assay on Raphanus raphanistrum [9] was inactive.
